The values that follow are results of earlier work, collected in patent US11752142B2, “Oral pharmaceutical compositions of dabigatran etexilate” (Breckenridge Pharmaceutical, Inc., priority 2012, dated 2023).

Structures can show the parent of a compound that is named as a salt. Where two headings read alike, the source gives them in different places.

Experiment in data set [1]: not given
This is another data set of the same source.

Experiment in data set [2]: not given
This is another data set of the same source.

For the molecule `CCCCCCOC(=O)NC(=N)c1ccc(NCc2nc3cc(C(=O)N(CCC(=O)OCC)c4ccccn4)ccc3n2C)cc1` [DEM, dabigatran etexilate mesylate], the “sensitivity to light irradiation” value (light irradiation) is recorded as “not sensitive to light irradiation”. The stability entry (solid state) is “stable in the solid state”. Besides, the aqueous solubility entry was “rather high solubility” in data set [1] (acidic media); “very poor solubility” in data set [1] (neutral and basic media). Also, in data set [1] (poor aqueous solubility but good membrane permeability), the BCS class entry is “BCS Class II”.
Turning to `CCCCCCOC(=O)NC(=N)c1ccc(NCc2nc3cc(C(=O)N(CCC(=O)OCC)c4ccccn4)ccc3n2C)cc1` [dabigatran etexilate, 3-[(2-{4-(hexyloxycarbonylamino-imino-methyl)-phenylamino]methyl}-1-methyl-1H-benzimidazol-5-carbonyl)-pyridin-2-yl-amino-propionic acid ethyl ester], the Tmax in data set [2] (absorption of the active) is recorded as 45 minutes-1 hour.
With `[H]/N=C(/N)c1ccc(NCc2nc3cc(C(=O)N(CCC(=O)O)c4ccccn4)ccc3n2C)cc1` [dabigatran], in data set [2] (dabigatran following oral administration of dabigatran etexilate), the absolute bioavailability is 3-7%. Further, the elimination half life in data set [2] (following oral administration of dabigatran etexilate) was 12 to 17 h.
